How the values were obtained:
[1] = test system: chemoresistant MDA-MB-231 human tumour cells (breast adenocarcinoma); assay: Viability of MDA-MB-231 cells, xCELLigence assay (Table 5); type: cell-based; details: conclusion from Tables 5 and 6 (MDA-MB-231 and MCF-7)
[2] = test system: MDA-MB-231 (breast adenocarcinoma); assay: Cell viability of chemoresistant MDA-MB-231 cells (Tables 1, 2, 4); type: cell-based, human; details: alone or in association with cyclophosphamide
From the text: The activity of the association of at least one flavonoid, preferably selected from the group comprising or, alternatively, consisting of oxerutin, diosmin, hesperidin and rutin in association with melatonin and with synthetic chemotherapeutic agents (cyclophosphamide/methotrexate) and/or arctigenin, arctiin, berberine, berbamine, sanguinarine and chelerythrine (indicated with the term “Extracts” in the Tables) was studied in resistant cell lines of adenocarcinomas and carcinomas in comparison with chemosensitive tumour cell lines and line cells.

| Structure (SMILES) | effect on the anti-tumour activity of flavonoids [1] | synergistic effects in association with cyclophosphamide [2] |
| --- | --- | --- |
| COc1ccc2[nH]cc(CCNC(C)=O)c2c1 [Melatonin, melatonin] | enhances the anti-tumour activity of flavonoids | – |
| O=c1c(O)c(-c2ccc(O)c(O)c2)oc2cc(O)cc(O)c12 [Quercetin, quercetin] | – | absence of synergistic effects |

Source: patent US11026922B2, “Compositions comprising melatonin and flavonoids for use in the treatment of tumours resistant to chemotherapy” (priority 2014, dated 2021)
